Reference: patent US20120295844A1, “USE OF APROTININ FOR TREATING PARASITIC INFECTIONS AND PROGNOSING BOVINE TRYPANOTOLERANCE” (priority 2010, published 2012)

Key:
[1] = system: NO production by J774.2 macrophage line cells; assay: NO production inhibition by J774.2 macrophage line (Griess assay); format: cell-based, mouse; conditions: LPS + IFNγ stimulated J774.2 cells, 15 hours
Experimental: (§1) Two different vials of the J774.2 line were used at the 8th and 9th passages. The cells from these vials were placed in culture in parallel, and the tests were triplicated. The cells were first stimulated with Lipopolysaccharide (LPS, InvivoGen) at a concentration of 100 ng/ml and with mouse interferon gamma (IDNγ, AbD serotex) at a final concentration of 10 ng/ml and incubated in the absence (control) or in the presence of various concentrations of BPTI (range of 12.5 to 100 μM) for 15 hours at 37° C./5% CO2 in a complete medium containing DMEM glutamax (Gibco) supplemented with 10% foetal calf serum (FCS) and 1% penicillin/streptamycin. The quantity of NO produced was determined by means of a colorimetric assay according to the Griess principle (Pinelli et al., Vet. Parasitol., 2000, 92: 181-189). For each BPTI concentration, NO production inhibition percentage is calculated according to the following formula: […]

[2] = system: NO production by RAW 264.7 macrophage line cells; assay: NO production inhibition by RAW 264.7 macrophage line (Griess assay); format: cell-based, mouse; conditions: LPS + IFNγ stimulated RAW 264.7 cells
Experimental: as §1
Two different vials of the RAW 264.7 line were used at the 10th and 11th passages. The cells from these vials were placed in culture in parallel, and the tests were triplicated and performed as described above.

[3] = system: NO production by bovine macrophages; assay: NO production inhibition by bovine macrophages derived from circulating monocytes; format: cell-based; conditions: LPS + bovine IFNg
Experimental: as §1
Bovine monocytes were isolated from circulating monocytes. Two independent tests were performed and each of the tests was triplicated. The monocytes were stimulated with LPS at a concentration of 250 ng/ml and bovine IFNg at a final concentration of 10 ng/ml. The cells were then incubated in the absence ([…]) for 20 hours (test 1) and 24 hours (test 2) at 37° C./5% CO2 in IMDM complete medium containing IMDM supplemented with L-glutamine at […] final, gentamicin at 50 μg/ml final, 10% FCS and 5×10^−5 M b-mercaptoethanol.

[4] = system: Trypanosoma congolense IL1180; assay: Viability of Trypanosoma congolense IL1180 cultured in vitro (FACS, microscopy); format: cell-based; conditions: for mortality induced by BPTI (natural mortality subtracted): 48 hours
Experimental: Before adding BPTI and for measurement times: 1.5 hours, 17 hours and 24 hours, the parasites (Trypanosoma congolense IL1180) are clearly visible; their form is as expected (fusiform), and they are mobile. However, the mortality becomes increasingly visible over time. The impact of BPTI on morphology is perceptible 17 hours (and thereafter) after adding BPTI to the culture. […] In order to analyze the effect of BPTI on parasite viability, flow cytometry measurements were made at different times (1.5 hours, 17 hours, 24 hours and 48 hours after adding 100 μM or 200 μM of BPTI for parasite concentrations of 5×10^6 parasites/ml and 10×10^6 parasites/ml). The results obtained are represented in graphs A and B in FIG. 7. There is a “natural” mortality of Trypanosoma congolense in vitro, due to the difficulty maintaining sanguicolous forms of Trypanosoma congolense in liquid culture. This mortality increases over time and reaches values of 49.1% and 47.1% under conditions using 5.10^6 parasites/ml and 10.10^6 parasites/ml, respectively. However, a trypanocidal action of BPTI may be observed on trypanosome cultures, a slight dose-dependent effect of BPTI on parasite viability may be recorded. The effect of BPTI is extremely significant and appears to be also time-dependent. […] The mortality induced by BPTI on a population of 5×10^6 trypanosomes (10×10^6 parasites/ml) under the same conditions is 49.6% and 48.8%, respectively (see graphs A and B in FIG. 8).

[5] = system: Leishmania donovani infantum (Ldi); assay: Viability and growth of Leishmania donovani infantum (Ldi) cultured in vitro (FACS); format: cell-based; conditions: BPTI 50, 100, 200 μM
Experimental: The growth and viability of Leismania donovani infantum parasites were measured by FACS at 4, 12, 24, 48, 72, 144 and 168 hours of culture after addition of BPTI at concentrations of 50, 100 and 200 μM. The results are presented in graphs A and B in FIG. 10.
The effect of BPTI was tested for each time value with a non-parametric test (Kruskal-Wallis test).

[6] = system: "trypsin-like" (serine protease) in Trypanosoma congolense (Tc. IL1180) lysates; assay: BAPNA degradation by Trypanosoma congolense (Tc. IL1180) lysates; format: biochemical; conditions: BPTI 3.125 mg/ml or 481.25 μM or 625 μg/well, BAPNA 0.315 mM
Experimental: (§2) The parasites were placed in rodent culture and purified on a DEAE cellulose column. The parasites were then counted, and lysed by means of 4 successive 1-minute passages in liquid nitrogen and in a water-bath at 37° C. The tests were conducted on three independent procedures in triplicate using […]. The method used for detecting “trypsin-like” (serine protease) consists of measuring, as a function of time, the initial degradation rate of a homogeneous substrate, N-benzoyl-ariginine-p-nitroaniline (BAPNA), under the effect of “trypsin-like” found in lysates in the presence of absence of BPTI. The appearance of the degradation product, p-nitroalinine (p-Na), which is yellow in colour, is measured by means of spectrophotometry at 405 nm. The enzyme activity calculation is performed according to the Beer-Lambert law.

[7] = system: "trypsin-like" (serine protease) in Leishmania donovani infantum (Ldi) lysates; assay: BAPNA degradation by Leishmania donovani infantum (Ldi) lysates; format: biochemical; conditions: BPTI 625 μg; lysate alone 2.893
Experimental: as §2
(§3) Leishmania (Ldi and Ldd8) were placed in culture in RMPI supplemented with 10% FCS, 1% penicillin/streptomycin and 1% Ultraglutamine and placed in an incubator) 37° C./5% CO2 for one week. The leishmania are counted and lysed according to the protocol defined for trypanosome lysis. The method for detecting and the method for calculating the enzyme activity were identical to those used for trypanosomes. The tests using Ldi and Ldd8 were conducted on three independent procedures in triplicate using […].

[8] = system: "trypsin-like" (serine protease) in Leishmania donovani donovani (Ldd8) lysates; assay: BAPNA degradation by Leishmania donovani donovani (Ldd8) lysates; format: biochemical; conditions: BPTI 625 μg; lysate alone 1.767
Experimental: as §2, §3

Substance aprotinin [BPTI] has an NO production inhibition ([1]; BPTI 12.5 μM) of 1.7%, an NO production inhibition ([1]; BPTI 25 μM) of 16.2% and an NO production inhibition ([1]; BPTI 50 μM) of 30.1%. For the same substance, the NO production inhibition ([1]; BPTI 100 μM) was 59.5%, the NO production inhibition ([2]; BPTI 12.5 μM) was “NO inhibition was observed” and the NO production inhibition ([2]; BPTI 25 μM) was 0.2%. For the same substance, the NO production inhibition ([2]; BPTI 50 μM) was 16.1%, the NO production inhibition ([2]; BPTI 100 μM) was 47.6% and the “mean inhibition of NO production” value ([3]; Test 1, 20 hours, BPTI 12.5 μM) was 8.4%. The “mean inhibition of NO production” value ([3]; Test 1, 20 hours, BPTI 25 μM) was 14.2%, the “mean inhibition of NO production” value ([3]; Test 1, 20 hours, BPTI 50 μM) was 32.6% and the “mean inhibition of NO production” value ([3]; Test 1, 20 hours, BPTI 100 μM) was 70.5%. For the same substance, the “mean inhibition of NO production” value ([3]; Test 2, 24 hours, BPTI 6.25 μM) was 12%, the “mean inhibition of NO production” value ([3]; Test 2, 24 hours, BPTI 12.5 μM) was 25.9% and the “mean inhibition of NO production” value ([3]; Test 2, 24 hours, BPTI 25 μM) was 62.5%. For the same substance, the “mean inhibition of NO production” value ([3]; Test 2, 24 hours, BPTI 50 μM) was 70%, the “mean inhibition of NO production” value ([3]; Test 2, 24 hours, BPTI 100 μM) was 60.2% and the “effect on parasite morphology (microscopic observation)” value ([4]; 17 hours and thereafter after adding BPTI to the culture) was “Spherical forms are observed”. The “mortality induced by BPTI (natural mortality subtracted)” value (“mortality induced by BPTI” below) ([4]; BPTI 100 μM, 2.5×10^6 trypanosomes (5×10^6 parasites/ml)) was 46%, the “mortality induced by BPTI” value ([4]; BPTI 100 μM, 5×10^6 trypanosomes (10×10^6 parasites/ml)) was 49.6% and the “mortality induced by BPTI” value ([4]; BPTI 200 μM, 2.5×10^6 trypanosomes (5×10^6 parasites/ml)) was 47.4%. For the same substance, the “mortality induced by BPTI” value ([4]; BPTI 200 μM, 5×10^6 trypanosomes (10×10^6 parasites/ml)) was 48.8%, the “increase of in vitro parasite mortality” value ([4]; summary statement referring to Example 2) was 50% and the “effect on the viability of leishmania (Kruskal-Wallis test)” value (shortened to “effect on the viability of leishmania”) ([5]; 72 hours, P-value=0.05) was “at the limit of significance”. For the same substance, the “effect on the viability of leishmania” value ([5]; 144 hours, P-value=0.05) was “significant effect”, the “effect on the number of leishmania (growth, Kruskal-Wallis test)” value ([5]; 168 hours only, P-value=0.03) was “significant effect” and the “effect on the viability of leishmania” value ([5]; 168 hours, P-value=0.03) was “significant effect”. For the same substance, the “effect on the viability of leishmania” value ([5]; other observation times (4, 12, 24, 48 hours)) was “not significant”, the “mean inhibition of lysate enzyme activity” value [6] was 44.6% and the “lysate enzyme activity in the presence of BPTI” value ([6]; lysate alone 1.893) was 1.048 (Standard deviation 0.073). For the same substance, the “lysate enzyme activity with BPTI” value [7] was 1.555 and the “lysate enzyme activity with BPTI” value [8] was 1.0893.
